Data from publication PMC5218480 (PLoS ONE, 2017).

Test system: MV-4-11 cells
Assay: Gene expression microarray analysis (Affymetrix PrimeView) and GSEA
Type: cell-based, human
Set-up: RFU PODN (11730768_x_at) / Fold change /veh PODN (11730768_x_at) / RFU LINC00158 (11744669_a_at) / Fold change /veh LINC00158 (11744669_a_at) / RFU DUSP10 (11751237_a_at) / Fold change /veh DUSP10 (11751237_a_at) / RFU ID3 (11757404_x_at) / Fold change /veh ID3 (11757404_x_at) / RFU PLEKHG5 (11737974_s_at) / Fold change /veh PLEKHG5 (11737974_s_at) / RFU LRRC4B (11730491_at) / Fold change /veh LRRC4B (11730491_at) / RFU GIMAP4 (11747438_a_at) / Fold change /veh GIMAP4 (11747438_a_at) / RFU KRT8 (11758183_x_at) / Fold change /veh KRT8 (11758183_x_at) / RFU CNN1 (11734310_a_at) / Fold change /veh CNN1 (11734310_a_at) / RFU VPS37D (11726825_at) / Fold change /veh VPS37D (11726825_at) / RFU C10orf10 (11716522_x_at) / Fold change /veh C10orf10 (11716522_x_at) / RFU KIR2DL2 /// KIR2DL4 /// KIR2DL5A /// KIR2DL5B /// KIR2DS1 /// KIR2DS2 /// KIR2DS3 /// KIR2DS4 /// KIR3DL3 /// KIR3DL3 /// KIR3DS1 (11738374_at) / Fold change /veh KIR2DL2 /// KIR2DL4 /// KIR2DL5A /// KIR2DL5B /// KIR2DS1 /// KIR2DS2 /// KIR2DS3 /// KIR2DS4 /// KIR3DL3 /// KIR3DL3 /// KIR3DS1 (11738374_at) / RFU C1QL1 (11718748_at) / Fold change /veh C1QL1 (11718748_at) / RFU TMPRSS4 (11747572_a_at) / Fold change /veh TMPRSS4 (11747572_a_at) / RFU HAMP (11756126_x_at) / Fold change /veh HAMP (11756126_x_at) / RFU RNFT2 (11725882_a_at) / Fold change /veh RNFT2 (11725882_a_at) / RFU NR4A2 (11747474_a_at) / Fold change /veh NR4A2 (11747474_a_at) / RFU ABCC12 (11746883_a_at) / Fold change /veh ABCC12 (11746883_a_at) / RFU TMEM136 (11760407_x_at) / Fold change /veh TMEM136 (11760407_x_at) / RFU CLDN22 /// WWC2 (11732394_at) / Fold change /veh CLDN22 /// WWC2 (11732394_at) / RFU HLA-DPB1 (11760878_x_at) / Fold change /veh HLA-DPB1 (11760878_x_at) / RFU SPINT1 (11716480_a_at) / Fold change /veh SPINT1 (11716480_a_at) / RFU GAP43 (11754022_s_at) / Fold change /veh GAP43 (11754022_s_at) / RFU A4GNT (11735810_at) / Fold change /veh A4GNT (11735810_at) / RFU PRB3 (11715151_x_at) / Fold change /veh PRB3 (11715151_x_at) / RFU TUBB4B (11761932_at) / Fold change /veh TUBB4B (11761932_at) / RFU CAPN14 (11732068_a_at) / Fold change /veh CAPN14 (11732068_a_at) / RFU TMCC2 (11721928_a_at) / Fold change /veh TMCC2 (11721928_a_at) / RFU IRGQ (11745062_a_at) / Fold change /veh IRGQ (11745062_a_at) / RFU FAM174B (11720279_a_at) / Fold change /veh FAM174B (11720279_a_at) / RFU TMPRSS4 (11748680_a_at) / Fold change /veh TMPRSS4 (11748680_a_at) / RFU FAM212B (11763350_a_at) / Fold change /veh FAM212B (11763350_a_at) / RFU PLEKHG5 (11743358_a_at) / Fold change /veh PLEKHG5 (11743358_a_at) / RFU ZSCAN30 (11745921_a_at) / Fold change /veh ZSCAN30 (11745921_a_at) / RFU CMKLR1 (11741424_a_at) / Fold change /veh CMKLR1 (11741424_a_at) / RFU LOC101060620 /// MAPK8IP1 (11723275_at) / Fold change /veh LOC101060620 /// MAPK8IP1 (11723275_at) / RFU SPTSSB (11747773_x_at) / Fold change /veh SPTSSB (11747773_x_at) / RFU PRSS12 (11739890_at) / Fold change /veh PRSS12 (11739890_at) / RFU BIN1 (11741810_x_at) / Fold change /veh BIN1 (11741810_x_at) / RFU WNT11 (11732464_a_at) / Fold change /veh WNT11 (11732464_a_at) / RFU C10orf10 (11716521_a_at) / Fold change /veh C10orf10 (11716521_a_at) / RFU C5orf56 (11738089_at) / Fold change /veh C5orf56 (11738089_at) / RFU CYB561 (11721691_x_at) / Fold change /veh CYB561 (11721691_x_at) / RFU ANKRD19P (11752326_a_at) / Fold change /veh ANKRD19P (11752326_a_at) / RFU OR2T12 /// OR2T33 /// OR2T8 (11738714_s_at) / Fold change /veh OR2T12 /// OR2T33 /// OR2T8 (11738714_s_at) / RFU VCAN (11748164_a_at) / Fold change /veh VCAN (11748164_a_at) / RFU JSRP1 (11732532_at) / Fold change /veh JSRP1 (11732532_at) / RFU KRTAP10-11 (11738290_x_at) / Fold change /veh KRTAP10-11 (11738290_x_at) / RFU MYO3A (11730013_a_at) / Fold change /veh MYO3A (11730013_a_at) / RFU EBF3 (11725865_a_at) / Fold change /veh EBF3 (11725865_a_at) / RFU CAMK2N1 (11719241_x_at) / Fold change /veh CAMK2N1 (11719241_x_at) / RFU C5orf56 (11738088_a_at) / Fold change /veh C5orf56 (11738088_a_at) / RFU OLFML3 (11715873_a_at) / Fold change /veh OLFML3 (11715873_a_at) / RFU LOC100653217 /// NTM (11731650_a_at) / Fold change /veh LOC100653217 /// NTM (11731650_a_at) / RFU MAPK11 (11762145_a_at) / Fold change /veh MAPK11 (11762145_a_at) / RFU FIZ1 (11724087_x_at) / Fold change /veh FIZ1 (11724087_x_at) / RFU OASL (11726364_x_at) / Fold change /veh OASL (11726364_x_at) / RFU SOX15 (11748057_x_at) / Fold change /veh SOX15 (11748057_x_at) / RFU CD79A (11719716_a_at) / Fold change /veh CD79A (11719716_a_at) / RFU HIST1H1D (11736915_at) / Fold change /veh HIST1H1D (11736915_at) / RFU CASKIN2 (11723855_a_at) / Fold change /veh CASKIN2 (11723855_a_at) / RFU LOC730098 (11760151_x_at) / Fold change /veh LOC730098 (11760151_x_at) / RFU OR4N2 (11742367_at) / Fold change /veh OR4N2 (11742367_at) / RFU PRRT2 (11749266_a_at) / Fold change /veh PRRT2 (11749266_a_at) / RFU SNX32 (11753110_a_at) / Fold change /veh SNX32 (11753110_a_at) / RFU CDHR5 (11726645_a_at) / Fold change /veh CDHR5 (11726645_a_at) / RFU RCAN1 (11760418_a_at) / Fold change /veh RCAN1 (11760418_a_at) / RFU FAM167A (11723789_a_at) / Fold change /veh FAM167A (11723789_a_at) / RFU FAM26E (11764081_at) / Fold change /veh FAM26E (11764081_at) / RFU ISYNA1 (11749810_s_at) / Fold change /veh ISYNA1 (11749810_s_at) / RFU ACY1 (11761880_at) / Fold change /veh ACY1 (11761880_at) / RFU 11764098_at / Fold change /veh 11764098_at / RFU SAMD14 (11745864_x_at) / Fold change /veh SAMD14 (11745864_x_at) / RFU NPB (11741838_a_at) / Fold change /veh NPB (11741838_a_at) / RFU TMPRSS6 (11731388_a_at) / Fold change /veh TMPRSS6 (11731388_a_at) / RFU KRTAP10-2 (11738614_at) / Fold change /veh KRTAP10-2 (11738614_at) / RFU ARHGAP8 /// PRR5-ARHGAP8 (11727945_x_at) / Fold change /veh ARHGAP8 /// PRR5-ARHGAP8 (11727945_x_at) / RFU KRTAP5-7 /// NADSYN1 (11734609_at) / Fold change /veh KRTAP5-7 /// NADSYN1 (11734609_at) / RFU RASL12 (11751679_a_at) / Fold change /veh RASL12 (11751679_a_at) / RFU CDKN2B (11736163_a_at) / Fold change /veh CDKN2B (11736163_a_at) / RFU PRF1 (11729649_at) / Fold change /veh PRF1 (11729649_at) / RFU, ZNF638 /// ZNF638-IT1 / Fold change vs veh, ZNF638 /// ZNF638-IT1 / RFU, PANK3 / Fold change vs veh, PANK3 / RFU, SH3YL1 / Fold change vs veh, SH3YL1 / RFU, ZEB2 / Fold change vs veh, ZEB2 / RFU, NRIP1 / Fold change vs veh, NRIP1 / RFU, PTTG1IP / Fold change vs veh, PTTG1IP / RFU, CAPN2 / Fold change vs veh, CAPN2 / RFU, MED14 / Fold change vs veh, MED14 / RFU, SNORA58 / Fold change vs veh, SNORA58 / RFU, C1orf63 / Fold change vs veh, C1orf63 / RFU, LRRFIP1 / Fold change vs veh, LRRFIP1 / RFU, NDUFAF7 / Fold change vs veh, NDUFAF7 / RFU, SLC12A2 / Fold change vs veh, SLC12A2 / RFU, IBTK / Fold change vs veh, IBTK / RFU, ESF1 / Fold change vs veh, ESF1 / Fold change vs veh, TMEM50B / RFU, TAOK1 / Fold change vs veh, TAOK1 / RFU, ACBD3 / Fold change vs veh, ACBD3 / RFU, TMA16 / Fold change vs veh, TMA16 / RFU, RWDD3 / Fold change vs veh, RWDD3 / RFU, BCAT1 / Fold change vs veh, BCAT1 / RFU, EDEM3 / Fold change vs veh, EDEM3 / RFU, TMEM33 / Fold change vs veh, TMEM33 / RFU, WDR75 / Fold change vs veh, WDR75 / RFU, AHCTF1 / Fold change vs veh, AHCTF1 / RFU, TFRC / Fold change vs veh, TFRC / RFU, ZDHHC17 / Fold change vs veh, ZDHHC17 / RFU, NOM1 / Fold change vs veh, NOM1 / RFU, ARL8B / Fold change vs veh, ARL8B / RFU, ZBTB11 / Fold change vs veh, ZBTB11 / RFU, TAMM41 / Fold change vs veh, TAMM41 / RFU, KIAA1704 /// LOC100996395 / Fold change vs veh, KIAA1704 /// LOC100996395 / RFU, ING1 / Fold change vs veh, ING1 / RFU, TRMT61B / Fold change vs veh, TRMT61B / RFU, FUBP3 / Fold change vs veh, FUBP3 / RFU, TP53 / Fold change vs veh, TP53 / RFU, TNKS2 / Fold change vs veh, TNKS2 / RFU, ZFP14 / Fold change vs veh, ZFP14 / RFU, ACTR2 / Fold change vs veh, ACTR2 / RFU, PPP3R1 / Fold change vs veh, PPP3R1 / RFU, PIK3R1 / Fold change vs veh, PIK3R1 / RFU, HNRNPA1 / Fold change vs veh, HNRNPA1 / RFU, RNF170 / Fold change vs veh, RNF170 / RFU, ZNF28 / Fold change vs veh, ZNF28 / RFU, RNGTT / Fold change vs veh, RNGTT / RFU, OGT / Fold change vs veh, OGT / RFU, BRD1 / Fold change vs veh, BRD1 / RFU, MARS / Fold change vs veh, MARS / RFU, ZNF655 / Fold change vs veh, ZNF655 / RFU, FAHD1 / Fold change vs veh, FAHD1 / RFU, BDP1 / Fold change vs veh, BDP1 / RFU, LRRCC1 / Fold change vs veh, LRRCC1 / RFU, ARID1A / Fold change vs veh, ARID1A / RFU, ZNF146 / Fold change vs veh, ZNF146 / RFU, ZNF330 / Fold change vs veh, ZNF330 / RFU, GPN3 / Fold change vs veh, GPN3 / RFU, C9orf123 / Fold change vs veh, C9orf123 / RFU, N4BP2L2 / Fold change vs veh, N4BP2L2 / RFU, ARFIP1 / Fold change vs veh, ARFIP1 / RFU, FAM179B / Fold change vs veh, FAM179B / RFU, BCL10 / Fold change vs veh, BCL10 / RFU, UHRF1BP1L / Fold change vs veh, UHRF1BP1L / RFU, BET1 / Fold change vs veh, BET1 / RFU, CNOT2 / Fold change vs veh, CNOT2 / RFU, ZNF268 / Fold change vs veh, ZNF268 / Fold change vs veh, ZNF507 / RFU, DGCR2 / Fold change vs veh, DGCR2 / RFU, WDSUB1 / Fold change vs veh, WDSUB1 / Fold change vs veh, HSP90B1 /// MIR3652 / RFU, ADSS / Fold change vs veh, ADSS / RFU, GK / Fold change vs veh, GK / RFU, ZNF148 / Fold change vs veh, ZNF148 / RFU, TAF9 / Fold change vs veh, TAF9 / RFU, SLC1A5 / Fold change vs veh, SLC1A5 / RFU, SLMO2 / Fold change vs veh, SLMO2 / RFU, ABCC4 / Fold change vs veh, ABCC4 / RFU, LOC101060439 /// RAP1B / Fold change vs veh, LOC101060439 /// RAP1B / RFU, RFX7 / Fold change vs veh, RFX7 / RFU, GTPBP10 / Fold change vs veh, GTPBP10 / RFU, CNEP1R1 / Fold change vs veh, CNEP1R1 / RFU, BIVM-ERCC5 /// ERCC5 / Fold change vs veh, BIVM-ERCC5 /// ERCC5 / RFU, ILF3 / Fold change vs veh, ILF3 / RFU 11762660_at / Fold change /veh 11762660_at / RFU VCAN (11757783_s_at) / Fold change /veh VCAN (11757783_s_at) / RFU DDX43 (11728927_at) / Fold change /veh DDX43 (11728927_at) / RFU KRT8 (11758188_x_at) / Fold change /veh KRT8 (11758188_x_at) / RFU NKD1 (11759106_at) / Fold change /veh NKD1 (11759106_at) / RFU SRD5A1 (11742802_a_at) / Fold change /veh SRD5A1 (11742802_a_at) / RFU TPSAB1 /// TPSB2 (11721975_s_at) / Fold change /veh TPSAB1 /// TPSB2 (11721975_s_at) / RFU GSTM3 (11746129_a_at) / Fold change /veh GSTM3 (11746129_a_at) / RFU IL23R (11737362_x_at) / Fold change /veh IL23R (11737362_x_at) / RFU TMEM51 (11727254_a_at) / Fold change /veh TMEM51 (11727254_a_at) / RFU PIWIL2 (11732686_x_at) / Fold change /veh PIWIL2 (11732686_x_at) / RFU ORM1 (11744905_x_at) / Fold change /veh ORM1 (11744905_x_at) / RFU CCDC152 (11743942_at) / Fold change /veh CCDC152 (11743942_at) / RFU ECM1 (11717891_a_at) / Fold change /veh ECM1 (11717891_a_at) / RFU IL23R (11748794_a_at) / Fold change /veh IL23R (11748794_a_at) / RFU TNFAIP8L3 (11732012_x_at) / Fold change /veh TNFAIP8L3 (11732012_x_at) / RFU MBOAT4 (11741988_at) / Fold change /veh MBOAT4 (11741988_at) / RFU 11764193_at / Fold change /veh 11764193_at / RFU TMEM53 (11763286_at) / Fold change /veh TMEM53 (11763286_at) / RFU MAGEB2 (11727129_at) / Fold change /veh MAGEB2 (11727129_at) / RFU TMEM200A (11744735_a_at) / Fold change /veh TMEM200A (11744735_a_at) / RFU CCDC152 (11751479_a_at) / Fold change /veh CCDC152 (11751479_a_at) / RFU FAM211A (11726209_a_at) / Fold change /veh FAM211A (11726209_a_at) / RFU RGS16 (11746705_a_at) / Fold change /veh RGS16 (11746705_a_at) / RFU VCAN (11755009_s_at) / Fold change /veh VCAN (11755009_s_at) / RFU RHOB (11743442_s_at) / Fold change /veh RHOB (11743442_s_at) / RFU RGS16 (11720943_a_at) / Fold change /veh RGS16 (11720943_a_at) / RFU RGS16 (11720944_at) / Fold change /veh RGS16 (11720944_at) / RFU, VPS4B / Fold change vs veh, VPS4B / RFU, CREB1 / Fold change vs veh, CREB1 / RFU, DNAJC13 / Fold change vs veh, DNAJC13 / RFU, GNAQ / Fold change vs veh, GNAQ / RFU, CDK5R1 / Fold change vs veh, CDK5R1 / RFU, ZRANB3 / Fold change vs veh, ZRANB3 / RFU, CUL4A / Fold change vs veh, CUL4A / RFU, CCNY / Fold change vs veh, CCNY / RFU, UFL1 / Fold change vs veh, UFL1 / RFU, COG3 / Fold change vs veh, COG3 / RFU, DIAPH2 / Fold change vs veh, DIAPH2 / RFU, SKA2 / Fold change vs veh, SKA2 / RFU, AFF3 / Fold change vs veh, AFF3 / RFU, LMF1 / Fold change vs veh, LMF1 / RFU, IPO11 / Fold change vs veh, IPO11 / RFU, DFFB / Fold change vs veh, DFFB / RFU, FOXP1 / Fold change vs veh, FOXP1 / RFU, CARD8 / Fold change vs veh, CARD8 / RFU, STRN3 / Fold change vs veh, STRN3 / RFU, ADK / Fold change vs veh, ADK / RFU, RASSF2 / Fold change vs veh, RASSF2 / RFU, WIPF1 / Fold change vs veh, WIPF1 / RFU, LARP1B / Fold change vs veh, LARP1B / RFU, RASA1 / Fold change vs veh, RASA1 / RFU, RB1 / Fold change vs veh, RB1 / RFU, PPFIA1 / Fold change vs veh, PPFIA1 / RFU, MAT2A / Fold change vs veh, MAT2A / RFU, CCT5 / Fold change vs veh, CCT5 / RFU, WDR92 / Fold change vs veh, WDR92 / RFU, CUX1 / Fold change vs veh, CUX1 / RFU, TTC7A / Fold change vs veh, TTC7A / RFU, TMEM135 / Fold change vs veh, TMEM135 / RFU, DEPTOR / Fold change vs veh, DEPTOR / RFU, CPM / Fold change vs veh, CPM / RFU, DNAJB6 / Fold change vs veh, DNAJB6 / RFU, CACNA2D3 / Fold change vs veh, CACNA2D3 / RFU, DTX4 / Fold change vs veh, DTX4 / RFU, TFCP2 / Fold change vs veh, TFCP2 / RFU, GMCL1 /// GMCL1P1 / Fold change vs veh, GMCL1 /// GMCL1P1 / RFU, AEBP2 / Fold change vs veh, AEBP2 / RFU, SNHG1 /// SNORD22 /// SNORD25 /// SNORD26 /// SNORD27 /// SNORD28 /// SNORD29 /// SNORD31 / Fold change vs veh, SNHG1 /// SNORD22 /// SNORD25 /// SNORD26 /// SNORD27 /// SNORD28 /// SNORD29 /// SNORD31 / Fold change (Aza/veh), C12orf56 (ProbeSet 11735607_a_at) / Fold change (ACY-1035/veh), C12orf56 (ProbeSet 11735607_a_at) / Fold change (Aza/veh), FGFR1OP (ProbeSet 11751329_s_at) / Fold change (ACY-1035/veh), FGFR1OP (ProbeSet 11751329_s_at) / Fold change (Aza/veh), VPS36 (ProbeSet 11739960_a_at) / Fold change (ACY-1035/veh), VPS36 (ProbeSet 11739960_a_at) / RFU SYPL1 (11715823_x_at) / Fold change /veh SYPL1 (11715823_x_at) / RFU IGFBP7 (11715501_s_at) / Fold change /veh IGFBP7 (11715501_s_at) / RFU REEP3 (11722064_at) / Fold change /veh REEP3 (11722064_at) / RFU IGLL1 (11728026_x_at) / Fold change /veh IGLL1 (11728026_x_at): dose or concentration left out as unconfirmed
Conditions: ProbeSet 11755436_x_at; LIST B

Nc1ccc(-c2cccs2)cc1NC(=O)c1ccc2c(c1)cc(C1CC1)n2CCN1CCOCC1 [ACY-1035]
RFU, ARID1A: 56.79 RFU
